Measurements taken from ChEMBL document CHEMBL1201862, “PubChem BioAssay data set” (2004).
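48-hour exposure; five concentrations; linearly interpolated endpoints. Here, GI50 denotes the concentration required for 50% inhibition of growth.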 Activity calls are given as the source filed them. Cut-off read from the data, not from the text of the source: active = GI50 up to about 1.1 µM and inactive = higher.

Tests used:
Experiment in all cases: growth of human tumour cells (NCI), 48 h
786-0 = test system: 786-0
A498 = test system: A498
ACHN = test system: ACHN
CCRF-CEM = test system: CCRF-CEM
HL-60 = test system: HL-60
M14 = test system: M14
Malme-3M = test system: Malme-3M
NCI/ADR-RES = test system: NCI/ADR-RES
OVCAR-3 = test system: OVCAR-3
OVCAR-4 = test system: OVCAR-4
OVCAR-5 = test system: OVCAR-5
OVCAR-8 = test system: OVCAR-8
PC-3 = test system: PC-3
RXF 393 = test system: RXF 393
SK-MEL-2 = test system: SK-MEL-2
SK-MEL-5 = test system: SK-MEL-5
SNB-75 = test system: SNB-75
UACC-62 = test system: UACC-62
TK-10 = test system: TK-10

SMILES	GI50 (786-0)	GI50 (A498)	GI50 (ACHN)	GI50 (CCRF-CEM)	GI50 (HL-60)	GI50 (M14)	GI50 (Malme-3M)	GI50 (NCI/ADR-RES)	GI50 (OVCAR-3)	GI50 (OVCAR-4)	GI50 (OVCAR-5)	GI50 (OVCAR-8)	GI50 (PC-3)	GI50 (RXF 393)	GI50 (SK-MEL-2)	GI50 (SK-MEL-5)	GI50 (SNB-75)	GI50 (UACC-62)	GI50 (TK-10)
CC1(C)Oc2ccc3ccc(=O)oc3c2C(O)C1O (centres undefined)	45 µM (inactive)	> 100 µM (inactive)	44.6 µM (inactive)	31.7 µM (inactive)	33.3 µM (inactive)	36.6 µM (inactive)	40.3 µM (inactive)	34 µM (inactive)	37.2 µM (inactive)	39.5 µM (inactive)	> 100 µM (inactive)	34 µM (inactive)	31.6 µM (inactive)	67.1 µM (inactive)	> 100 µM (inactive)	15.9 µM (inactive)	38.8 µM (inactive)	8.39 µM (inactive)	–
COc1cc2oc(-c3ccc4c(c3)OCO4)c(OC)c(=O)c2c(OC)c1OC	94 µM (inactive)	33.7 µM (inactive)	59.4 µM (inactive)	> 100 µM (inactive)	83.2 µM (inactive)	> 100 µM (inactive)	> 100 µM (inactive)	> 100 µM (inactive)	> 100 µM (inactive)	> 100 µM (inactive)	> 100 µM (inactive)	53.3 µM (inactive)	> 100 µM (inactive)	32.7 µM (inactive)	> 100 µM (inactive)	51.5 µM (inactive)	27.2 µM (inactive)	> 100 µM (inactive)	32.8 µM (inactive)
CNc1ccc(N)cc1C(=O)N1CCC[C@H]1CO	> 100 µM (inactive)	> 100 µM (inactive)	> 100 µM (inactive)	> 100 µM (inactive)	> 100 µM (inactive)	> 100 µM (inactive)	> 100 µM (inactive)	> 100 µM (inactive)	–	> 100 µM (inactive)	> 100 µM (inactive)	> 100 µM (inactive)	> 100 µM (inactive)	> 100 µM (inactive)	> 100 µM (inactive)	> 100 µM (inactive)	> 100 µM (inactive)	> 100 µM (inactive)	> 100 µM (inactive)
O=c1[nH]nc(Cc2c[nH]c3ccccc23)o1	> 100 µM (inactive)	> 100 µM (inactive)	> 100 µM (inactive)	> 100 µM (inactive)	> 100 µM (inactive)	> 100 µM (inactive)	> 100 µM (inactive)	> 100 µM (inactive)	> 100 µM (inactive)	> 100 µM (inactive)	> 100 µM (inactive)	> 100 µM (inactive)	> 100 µM (inactive)	> 100 µM (inactive)	> 100 µM (inactive)	> 100 µM (inactive)	–	> 100 µM (inactive)	> 100 µM (inactive)
CC(=O)c1c2c(cc3c1CC1(Cc4cc5c(cc4C1)CCCC5)C3)CCCC2	> 100 µM (inactive)	56.6 µM (inactive)	6.49 µM (inactive)	–	7.85 µM (inactive)	> 100 µM (inactive)	94.8 µM (inactive)	> 100 µM (inactive)	27.2 µM (inactive)	8.39 µM (inactive)	> 100 µM (inactive)	> 100 µM (inactive)	51.4 µM (inactive)	> 100 µM (inactive)	18.8 µM (inactive)	10.3 µM (inactive)	< 0.01 µM (active)	> 100 µM (inactive)	> 100 µM (inactive)
O=C(O)C1C2C=CC(C2)C1c1ccccc1 (centres undefined)	> 100 µM (inactive)	> 100 µM (inactive)	> 100 µM (inactive)	> 100 µM (inactive)	> 100 µM (inactive)	> 100 µM (inactive)	> 100 µM (inactive)	> 100 µM (inactive)	> 100 µM (inactive)	–	> 100 µM (inactive)	> 100 µM (inactive)	> 100 µM (inactive)	> 100 µM (inactive)	31.6 µM (inactive)	> 100 µM (inactive)	> 100 µM (inactive)	> 100 µM (inactive)	> 100 µM (inactive)
O=C(CSc1nc2ccc(I)cc2c(=O)n1Cc1ccccc1)NNC(=O)c1ccccc1	8.97 µM (inactive)	11.6 µM (inactive)	17.7 µM (inactive)	49.7 µM (inactive)	> 100 µM (inactive)	29.3 µM (inactive)	–	13.6 µM (inactive)	19 µM (inactive)	8.99 µM (inactive)	16 µM (inactive)	8.3 µM (inactive)	10.7 µM (inactive)	4.73 µM (inactive)	6.08 µM (inactive)	10.3 µM (inactive)	2.38 µM (inactive)	14.2 µM (inactive)	11.8 µM (inactive)
CN(C)c1ccc(/C=c2/c3ccccc3n3nc4ccccc4c23)cc1	27 µM (inactive)	4.3 µM (inactive)	38.6 µM (inactive)	7.98 µM (inactive)	21.2 µM (inactive)	21.7 µM (inactive)	> 100 µM (inactive)	11.1 µM (inactive)	28.2 µM (inactive)	–	> 100 µM (inactive)	39.8 µM (inactive)	8.04 µM (inactive)	11.9 µM (inactive)	23.4 µM (inactive)	8.73 µM (inactive)	2.49 µM (inactive)	15.3 µM (inactive)	> 100 µM (inactive)
Cc1ccc(S(=O)(=O)N/N=c2/sc3ccccc3n2C)cc1	> 100 µM (inactive)	> 100 µM (inactive)	> 100 µM (inactive)	> 100 µM (inactive)	> 100 µM (inactive)	–	> 100 µM (inactive)	> 100 µM (inactive)	–	> 100 µM (inactive)	> 100 µM (inactive)	> 100 µM (inactive)	> 100 µM (inactive)	> 100 µM (inactive)	> 100 µM (inactive)	> 100 µM (inactive)	> 100 µM (inactive)	> 100 µM (inactive)	> 100 µM (inactive)
Cn1ccnc1Oc1ccc(Cl)cc1	11.5 µM (inactive)	16.9 µM (inactive)	12.8 µM (inactive)	–	0.631 µM (active)	13.7 µM (inactive)	2.28 µM (inactive)	16.7 µM (inactive)	–	6.12 µM (inactive)	15.6 µM (inactive)	7.69 µM (inactive)	14.3 µM (inactive)	16.9 µM (inactive)	16.4 µM (inactive)	14.1 µM (inactive)	14.7 µM (inactive)	11.1 µM (inactive)	18.7 µM (inactive)
Cc1oc2c(cc(O)c3cc(O)ccc32)c2cccc1-2	> 100 µM (inactive)	> 100 µM (inactive)	> 100 µM (inactive)	43.5 µM (inactive)	> 100 µM (inactive)	> 100 µM (inactive)	> 100 µM (inactive)	> 100 µM (inactive)	> 100 µM (inactive)	–	> 100 µM (inactive)	> 100 µM (inactive)	> 100 µM (inactive)	> 100 µM (inactive)	> 100 µM (inactive)	> 100 µM (inactive)	> 100 µM (inactive)	> 100 µM (inactive)	> 100 µM (inactive)
COc1ccc(C(OCC2OC(n3ccc(NC(=O)c4ccccc4)nc3=O)C(O)C2O)(c2ccccc2)c2ccccc2)cc1 (centres undefined)	2.12 µM (inactive)	1.62 µM (inactive)	2.9 µM (inactive)	2.26 µM (inactive)	2.24 µM (inactive)	2.03 µM (inactive)	1.89 µM (inactive)	2.37 µM (inactive)	1.69 µM (inactive)	2.67 µM (inactive)	2 µM (inactive)	1.78 µM (inactive)	3.09 µM (inactive)	2.97 µM (inactive)	3.33 µM (inactive)	1.91 µM (inactive)	9.55 µM (inactive)	8.26 µM (inactive)	–
COc1cc2c(cc1OC)C(=O)/C(=C/c1ccc(Cl)cc1)CC2	> 10 µM (inactive)	> 10 µM (inactive)	> 10 µM (inactive)	> 10 µM (inactive)	> 10 µM (inactive)	> 10 µM (inactive)	> 10 µM (inactive)	> 10 µM (inactive)	> 10 µM (inactive)	> 10 µM (inactive)	> 10 µM (inactive)	> 10 µM (inactive)	> 10 µM (inactive)	> 10 µM (inactive)	> 10 µM (inactive)	> 10 µM (inactive)	–	> 10 µM (inactive)	> 10 µM (inactive)
O=C(COc1ccc(OCC(=O)N2C(=O)CN(c3ccccc3)C2=S)cc1)N1C(=O)CN(c2ccccc2)C1=S	> 57 µM (inactive)	> 56.5 µM (inactive)	> 53.3 µM (inactive)	–	> 100 µM (inactive)	> 57.9 µM (inactive)	> 25 µM (inactive)	> 55.7 µM (inactive)	49.3 µM (inactive)	31.5 µM (inactive)	> 50.9 µM (inactive)	> 55.2 µM (inactive)	> 25 µM (inactive)	55.8 µM (inactive)	> 51.4 µM (inactive)	> 25 µM (inactive)	> 25 µM (inactive)	> 56.1 µM (inactive)	> 54.7 µM (inactive)
CN(C)Cc1cc(/C=C/C(=O)c2ccc(Br)cc2)cc(CN(C)C)c1O	16 µM (inactive)	13.6 µM (inactive)	11.5 µM (inactive)	4.06 µM (inactive)	6.84 µM (inactive)	31.2 µM (inactive)	16.7 µM (inactive)	36.6 µM (inactive)	20.8 µM (inactive)	–	35.2 µM (inactive)	29.2 µM (inactive)	26.6 µM (inactive)	19.2 µM (inactive)	26.2 µM (inactive)	19.6 µM (inactive)	12.5 µM (inactive)	20.4 µM (inactive)	12.8 µM (inactive)
